According to article PMC12025037, “Molecular Basis of Dipeptide Recognition in Drosophila melanogaster Angiotensin I-Converting Enzyme Homologue, AnCE” (Biomolecules, 2025):
Residues, ends and D or L forms follow the SMILES beside them.

Legend:
AnCE = target: T1, AnCE (Drosophila melanogaster, UniProt Q10714); test: Inhibition of AnCE activity, fluorogenic Abz-FRK(Dnp)-P substrate assay; format: biochemical; settings: for IC50: AnCE 25 ng, substrate Abz-FRK(Dnp)-P, pH 7.5, 20 °C, 10 min pre-incubation with inhibitor; for Ki: AnCE
T1 construct: made in house; host or cells: Pichia pastoris GS115 (vector pPiC9), purified from the culture supernatant
T1 sequence (Q10714 18-615): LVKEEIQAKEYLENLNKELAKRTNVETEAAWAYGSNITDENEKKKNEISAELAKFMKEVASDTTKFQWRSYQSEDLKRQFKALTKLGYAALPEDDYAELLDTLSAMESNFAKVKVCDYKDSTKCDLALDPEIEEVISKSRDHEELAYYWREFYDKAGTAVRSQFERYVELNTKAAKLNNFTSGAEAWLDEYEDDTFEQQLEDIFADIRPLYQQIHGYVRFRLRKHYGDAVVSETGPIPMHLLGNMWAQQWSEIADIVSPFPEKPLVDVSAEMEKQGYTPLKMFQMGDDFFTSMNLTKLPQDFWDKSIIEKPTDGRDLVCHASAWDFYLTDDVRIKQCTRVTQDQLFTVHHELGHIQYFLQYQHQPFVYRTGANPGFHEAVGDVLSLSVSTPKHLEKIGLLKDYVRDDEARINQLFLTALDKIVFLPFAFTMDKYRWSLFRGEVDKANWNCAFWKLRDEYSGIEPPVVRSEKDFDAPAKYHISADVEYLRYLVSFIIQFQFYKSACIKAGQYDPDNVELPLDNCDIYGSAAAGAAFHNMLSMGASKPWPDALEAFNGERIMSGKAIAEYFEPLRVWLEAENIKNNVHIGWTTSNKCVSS
Description: Enzyme assays were performed using the internally quenched fluorogenic peptide Abz-FRK(Dnp)-P (Enzo Life Sciences Ltd., Exeter, UK) as a substrate for 25 ng of AnCE in 200 µL of 100 mM HEPES buffer pH 7.5 with 50 mM NaCl and 10 µM ZnCl2. The reaction was started by adding 2 µL of 5 mM Abz-FRK(Dnp)-P in dimethyl sulfoxide to the buffer in wells of a 96-well black plastic plate (Corning Life Sciences, High Wycombe, UK), and the release of fluorescence on hydrolysis of the substrate was monitored continuously at 20 °C using a FLUOstar Omega (BMG Labtech GmbH, Offenburg, Germany) with λex at 340 nm and λem set at 430 nm. For studying the effect of dipeptide inhibitors, the enzyme in the assay buffer was pre-incubated with inhibitor for 10 min prior to the addition of the substrate. IC50 values were determined using the non-linear regression curve-fitting software [log(inhibitor) vs. response] of GraphPad Prism 7.01 (GraphPad Software, San Diego, CA, USA). The coefficient of determination (R^2) values for the regression model ranged from 0.9852 to 0.9629. Ki values were obtained using the Cheng–Prusoff equation and a substrate Km of 14.24 µM, obtained using non-linear regression curve-fitting software (Michaelis–Menten) of GraphPad Prism 7.01. The R^2 for the Km determination was 0.9787 [31].

cACE = target: cACE; parameters: method as in PMID 25053098; settings: cited from earlier work
nACE = target: nACE; parameters: method as in PMID 25053098; settings: cited from earlier work
ACE = tested on: ACE; parameters: method as in doi:10.1007/s00217-013-2014-x; settings: inhibition of ACE activity; cited from earlier work
[1] = from IC50 by Cheng–Prusoff equation, substrate Km 14.24 µM

| IC50 (AnCE) [µM] | Ki (AnCE; values restated in µM in the text) [µM] | Ki (AnCE; [1]) [µM] | SMILES | Ki (cACE) [µM] | Ki (nACE) [µM] | IC50 (ACE) [µM] | inhibition of cACE (in words) (cACE) |
| --- | --- | --- | --- | --- | --- | --- | --- |
| 880 | 200 | – | NC(N)=NCCC[C@H](N)C(=O)N[C@@H](Cc1c[nH]c2ccccc12)C(=O)O [RW] (H-Arg-Trp-OH) | – | – | – | – |
| 3780 | – | 840 | N=C(N)NCCC[C@H](NC(=O)[C@@H](N)Cc1c[nH]c2ccccc12)C(=O)O [WR] (H-Trp-Arg-OH) | – | – | – | poor inhibitors |

The next lines start with the compound.

| SMILES | IC50 (AnCE) [µM] | Ki (AnCE; values restated in µM in the text) [µM] | Ki (AnCE; [1]) [µM] | Ki (cACE) [µM] | Ki (nACE) [µM] | IC50 (ACE) [µM] | inhibition of cACE (in words) (cACE) |
| --- | --- | --- | --- | --- | --- | --- | --- |
| CC(C)[C@H](N)C(=O)N[C@@H](Cc1c[nH]c2ccccc12)C(=O)O [VW] (H-Val-Trp-OH) | 780 | – | 170 | 2.1 | 152 | – | – |
| CC[C@H](C)[C@H](N)C(=O)N[C@@H](Cc1c[nH]c2ccccc12)C(=O)O [IW] | 340 | – | 80 | 1.6 | 59.6 | 0.7 | – |
| N[C@@H](Cc1ccc(O)cc1)C(=O)N[C@@H](Cc1c[nH]c2ccccc12)C(=O)O [YW] (H-Tyr-Trp-OH) | 3400 | – | 750 | – | – | – | poor inhibitors |
